Reference: patent US20060069132A1, “Azolecarboxamide herbicides” (priority 2004, published 2006)

How the values were obtained:
[1] = system: barnyardgrass; experiment: Test A pre-/postemergence herbicide test; type: in vivo, Echinochloa crus-galli; conditions: for Plant response rating, Barnyardgrass: Postemergence; for Barnyardgrass plant response rating: Preemergence
How it was run: (§1)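 Seeds sown in sandy loam received a preemergence directed soil spray of compound in non-phytotoxic solvent with surfactant; postemergence plants (2–10 cm, one- to two-leaf stage) were sprayed to runoff at the same time. After ~10 days in greenhouse, injury was rated visually versus untreated controls (0 = no effect, 100 = complete control).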

[2] = system: large crabgrass; experiment: Test A pre-/postemergence herbicide test; type: in vivo, Digitaria sanguinalis; conditions: for Plant response rating, Crabgrass, Large: Postemergence; for Crabgrass, Large plant response rating: Preemergence
How it was run: as §1

[3] = system: redroot pigweed; experiment: Test A pre-/postemergence herbicide test; type: in vivo, Amaranthus retroflexus; conditions: for Plant response rating, Pigweed: Postemergence; for Pigweed plant response rating: Preemergence
How it was run: as §1

[4] = system: blackgrass; experiment: Test B postemergence herbicide test; type: in vivo, Alopecurus myosuroides; conditions: scale 0 (no effect) to 100 (complete control)
How it was run: (§2)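 Greenhouse test; postemergence application to plants at 1–4 leaves (2–18 cm); paddy species at 2 leaves; evaluated visually vs controls at 13–15 days; scale 0–100 (100 = complete control).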

[5] = system: small flower umbrella sedge; experiment: Test B flooded paddy test; type: in vivo, Cyperus difformis; conditions: 1000 g ai/ha, visual rating, scale 0 to 100 (0 no effect, 100 complete control), 13 to 15 days
How it was run: as §2

[6] = system: bermudagrass; experiment: Test C pre-/postemergence herbicide test; type: in vivo, Cynodon dactylon; conditions: for Plant response rating, Bermudagrass: visual, 12 to 14 days
How it was run: (§3)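 Seeds were planted and sprayed preemergence with test chemicals in a non-phytotoxic solvent mixture containing surfactant; postemergence treatments went onto plants 2 to 18 cm tall (1- to 4-leaf stage). After 12 to 14 days in a greenhouse, injury was rated visually against untreated controls on a 0–100 scale.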

[7] = system: woolly cupgrass; experiment: Test C pre-/postemergence herbicide test; type: in vivo, Eriochloa villosa; conditions: for Plant response rating, Cupgrass, Woolly: visual, 12 to 14 days
How it was run: as §3

[8] = system: goosegrass; experiment: Test C pre-/postemergence herbicide test; type: in vivo, Eleusine indica; conditions: for Plant response rating, Goosegrass: visual, 12 to 14 days
How it was run: as §3

[9] = system: rice; experiment: Test C flooded paddy test; type: in vivo, Oryza sativa
How it was run: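 Postemergence sprays applied to plants 2 to 18 cm tall (1- to 4-leaf stage); paddy species grown to 2-leaf stage under flooding. After 12 to 14 days in greenhouse, visual rating versus untreated controls on 0–100 scale (0 no effect, 100 complete control).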

[10] = 500 g ai/ha, 0 to 100 scale, 0 no effect, 100 complete control
[11] = 2000 g ai/ha, 0 to 100 scale, 0 no effect, 100 complete control
[12] = 500 g ai/ha, visual rating, 0 to 100 scale (0 no effect, 100 complete control)
[13] = 125 g ai/ha, scale 0 (no effect) to 100 (complete control), preemergence
[14] = 250 g ai/ha, scale 0 to 100 (0 no effect, 100 complete control), preemergence
[15] = Preemergence, 500 g ai/ha, scale 0 to 100, 0 no effect, 100 complete control

Compound: CCN1CCc2c(NC(=O)c3cc(C(C)(C)C)nn3CC)cccc2C1=O [Compound 63]
- Plant response rating, Barnyardgrass [1, 10]: 60
- Plant response rating, Barnyardgrass [1, 11]: 90
- Barnyardgrass plant response rating [1, 12]: 70
- Barnyardgrass plant response rating [1, 11]: 100
- Plant response rating, Crabgrass, Large [2, 10]: 40
- Plant response rating, Crabgrass, Large [2, 11]: 80
- Crabgrass, Large plant response rating [2, 12]: 90
- Crabgrass, Large plant response rating [2, 11]: 100
- Plant response rating, Pigweed [3, 10]: 95
- Plant response rating, Pigweed [3, 11]: 100
- Pigweed plant response rating [3, 12]: 100
- Pigweed plant response rating [3, 11]: 100
- Plant response rating, Blackgrass ([4]; Postemergence, 500 g ai/ha, visual rating after 13 to 15 days): 20
- Blackgrass plant response rating ([4]; postemergence, 125 g ai/ha, visual rating): 10
- Sedge, Umbrella plant response rating [5]: 100
- Plant response rating (0 = no effect, 100 = complete control), Bermudagrass ([6]; 62 g ai/ha, preemergence): 50
- Plant response rating, Bermudagrass [6, 13]: 90
- Plant response rating, Bermudagrass [6, 14]: 90
- Bermudagrass plant response rating [6, 15]: 100
- Plant response rating (0 = no effect, 100 = complete control), Cupgrass, Woolly ([7]; 62 g ai/ha, preemergence): 0
- Plant response rating, Cupgrass, Woolly [7, 13]: 0
- Plant response rating, Cupgrass, Woolly [7, 14]: 0
- Cupgrass, Woolly plant response rating [7, 15]: 5
- Plant response rating (0 = no effect, 100 = complete control), Goosegrass ([8]; 62 g ai/ha, preemergence): 10
- Plant response rating, Goosegrass [8, 13]: 45
- Plant response rating, Goosegrass [8, 14]: 60
- Goosegrass plant response rating [8, 15]: 90
- Rice plant response rating ([9]; 62 g ai/ha, scale 0 to 100 (0 no effect, 100 complete control)): 0
- Rice plant response rating ([9]; 125 g ai/ha, scale of 0 to 100, 0 is no effect, 100 is complete control): 0
- Rice plant response rating ([9]; 250 g ai/ha, scale of 0 to 100, 0 is no effect, 100 is complete control): 15
- Plant response rating, Rice ([9]; 500 g ai/ha, visual rating after 12 to 14 days, scale 0 to 100 (0 no effect, 100 complete control)): 50
